Each molecule was assayed against CRBN-DDB1 protein complex (Homo sapiens, UniProt Q96SW2) (assay: Fluorescence Polarization (FP) assay, displacement of Cy5-labelled thalidomide). Conditions: 25 nM CRBN-DDB1, 5 nM Cy5-labelled thalidomide, read-out: CRBN binding Ki.
CRBN-DDB1 protein complex, sequence (Q96SW2 whole entry): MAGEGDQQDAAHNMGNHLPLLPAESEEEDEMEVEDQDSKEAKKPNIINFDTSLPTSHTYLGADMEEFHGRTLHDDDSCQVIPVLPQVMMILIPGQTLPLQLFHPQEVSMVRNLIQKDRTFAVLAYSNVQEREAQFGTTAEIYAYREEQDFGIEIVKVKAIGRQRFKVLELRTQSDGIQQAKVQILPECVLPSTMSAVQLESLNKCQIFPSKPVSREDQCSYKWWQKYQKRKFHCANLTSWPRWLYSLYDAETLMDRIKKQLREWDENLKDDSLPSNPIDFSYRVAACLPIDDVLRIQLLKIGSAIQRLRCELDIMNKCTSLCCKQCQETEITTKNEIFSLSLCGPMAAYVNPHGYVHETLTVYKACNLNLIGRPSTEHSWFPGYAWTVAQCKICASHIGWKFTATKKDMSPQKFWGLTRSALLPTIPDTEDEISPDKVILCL
CRBN-DDB1 protein complex, sequence (Q16531 whole entry partner): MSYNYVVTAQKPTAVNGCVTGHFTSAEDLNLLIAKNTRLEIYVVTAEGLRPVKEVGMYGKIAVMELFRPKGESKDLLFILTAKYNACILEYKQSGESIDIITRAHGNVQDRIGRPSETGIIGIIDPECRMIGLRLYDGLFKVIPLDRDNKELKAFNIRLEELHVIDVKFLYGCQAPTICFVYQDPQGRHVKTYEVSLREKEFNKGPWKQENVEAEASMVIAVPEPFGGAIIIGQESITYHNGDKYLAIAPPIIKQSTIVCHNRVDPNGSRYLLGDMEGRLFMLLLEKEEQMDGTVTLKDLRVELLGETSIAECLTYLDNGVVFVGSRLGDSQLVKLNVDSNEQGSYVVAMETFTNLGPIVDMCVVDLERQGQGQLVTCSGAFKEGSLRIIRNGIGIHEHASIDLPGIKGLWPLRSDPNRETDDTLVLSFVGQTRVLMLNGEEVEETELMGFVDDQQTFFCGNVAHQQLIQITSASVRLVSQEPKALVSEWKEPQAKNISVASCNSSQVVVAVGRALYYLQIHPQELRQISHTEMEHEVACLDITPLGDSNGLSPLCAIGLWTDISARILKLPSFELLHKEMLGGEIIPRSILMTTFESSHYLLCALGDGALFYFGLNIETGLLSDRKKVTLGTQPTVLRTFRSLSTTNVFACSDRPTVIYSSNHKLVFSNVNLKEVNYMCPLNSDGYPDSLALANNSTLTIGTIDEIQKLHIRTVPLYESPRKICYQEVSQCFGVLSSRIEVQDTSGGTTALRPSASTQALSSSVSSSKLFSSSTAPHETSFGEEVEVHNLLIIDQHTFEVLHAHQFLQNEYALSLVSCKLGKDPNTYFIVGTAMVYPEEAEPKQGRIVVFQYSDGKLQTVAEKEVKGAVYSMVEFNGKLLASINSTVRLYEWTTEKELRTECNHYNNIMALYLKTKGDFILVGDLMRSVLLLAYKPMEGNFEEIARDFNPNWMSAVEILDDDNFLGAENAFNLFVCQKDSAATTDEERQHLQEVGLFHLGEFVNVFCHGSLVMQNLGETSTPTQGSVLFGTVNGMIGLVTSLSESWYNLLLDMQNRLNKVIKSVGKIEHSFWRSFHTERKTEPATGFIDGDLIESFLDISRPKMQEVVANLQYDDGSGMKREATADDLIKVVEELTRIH
Description: CRBN-DDB1 protein complex was mixed with Cy5-labelled thalidomide and a compound to be tested (the “test compound”). […] The test solution was added to a 384-well assay plate.
The plate was spun-down (1 min, 1000 rpm, 22° C.) and then shaken using a VibroTurbulator for 10 min at room temperature (20-25° C.), with the frequency set to level 3. The assay plate with protein and the tracer was incubated for 60 min at room temperature (20-25° C.) prior to read-out with a plate reader.
The FP experiment was carried out with various concentrations of the test compounds in order to measure Ki values.
Molecule CC(C)(C)OC(=O)Nc1sccc1C(=O)NC1CCC(=O)NC1=O (centres unmarked) [Compound 1, tert-butyl (3-((2,6-dioxopiperidin-3-yl)carbamoyl)thiophen-2-yl)carbamate] has a Ki of 10 to 50 µM. For O=C1CCC(NC(=O)c2csc(=O)[nH]2)C(=O)N1 (centres unmarked) [Compound 15, N-(2,6-dioxopiperidin-3-yl)-2-oxo-2,3-dihydrothiazole-4-carboxamide], the Ki was 5 to 10 µM. CCOc1sccc1C(=O)NC1CCC(=O)NC1=O (centres unmarked) [Compound 28, N-(2,6-dioxopiperidin-3-yl)-2-ethoxythiophene-3-carboxamide] was tested, and the Ki was < 5 µM. COc1scc(C)c1C(=O)NC1CCC(=O)NC1=O (centres unmarked) [Compound 29, N-(2,6-dioxopiperidin-3-yl)-2-methoxy-4-methylthiophene-3-carboxamide] gave a Ki of 5 to 10 µM. In the case of COc1sc(C)cc1C(=O)NC1CCC(=O)NC1=O (centres unmarked) [Compound 30, N-(2,6-dioxopiperidin-3-yl)-2-methoxy-5-methylthiophene-3-carboxamide], the Ki is reported as < 5 µM. For COc1sc(C2CC2)cc1C(=O)NC1CCC(=O)NC1=O (centres unmarked) [Compound 32, 5-cyclopropyl-N-(2,6-dioxopiperidin-3-yl)-2-methoxythiophene-3-carboxamide], the Ki was < 5 µM. With COc1sc(-c2ccccc2)cc1C(=O)NC1CCC(=O)NC1=O (centres unmarked) [Compound 33, N-(2,6-dioxopiperidin-3-yl)-2-methoxy-5-phenylthiophene-3-carboxamide] the Ki was < 5 µM. For COc1sc(Br)cc1C(=O)NC1CCC(=O)NC1=O (centres unmarked) [Compound 34, 5-bromo-N-(2,6-dioxopiperidin-3-yl)-2methoxythiophene-3-carboxamide], the Ki was < 5 µM. COc1sc(C(C)(C)C)cc1C(=O)NC1CCC(=O)NC1=O (centres unmarked) [Compound 35, 5-(tert-butyl)-N-(2,6-dioxopiperidin-3-yl)-2-methoxythiophene-3-carboxamide] was tested, and the Ki was < 5 µM. For O=C1CCC(NC(=O)c2ccsc2-n2cccn2)C(=O)N1 (centres unmarked) [Compound 39, N-(2,6-dioxopiperidin-3-yl)-2-(1H-pyrazol-1-yl)thiophene-3-carboxamide], the Ki was 10 to 50 µM. O=C1CCC(NC(=O)c2ccoc2C2CC2)C(=O)N1 (centres unmarked) [Compound 47, 2-cyclopropyl-N-(2,6-dioxopiperidin-3-yl)furan-3-carboxamide] showed a Ki of 10 to 50 µM. In the case of CC(C)(C)OC(=O)NCc1ccc(C(=O)NC2CCC(=O)NC2=O)s1 (centres unmarked) [Compound 49, tert-butyl ((5-((2,6-dioxopiperidin-3-yl)carbamoyl)thiophen-2-yl)methyl)carbamate], the Ki is reported as < 5 µM. For NCc1ccc(C(=O)NC2CCC(=O)NC2=O)s1 (centres unmarked) [Compound 50, 5-(aminomethyl)-N-(2,6-dioxopiperidin-3-yl)thiophene-2-carboxamide], the Ki was 10 to 50 µM. CC(C)(C)OC(=O)NCc1csc(C(=O)NC2CCC(=O)NC2=O)c1 (centres unmarked) [Compound 51, tert-butyl ((5-((2,6-dioxopiperidin-3-yl)carbamoyl)thiophen-3-yl)methyl)carbamate] was tested, and the Ki was < 5 µM. For NCc1csc(C(=O)NC2CCC(=O)NC2=O)c1 (centres unmarked) [Compound 52, 4-(aminomethyl)-N-(2,6-dioxopiperidin-3-yl)thiophene-2-carboxamide], the Ki was 10 to 50 µM. With O=C1CCC(NC(=O)c2cc(O)cs2)C(=O)N1 (centres unmarked) [Compound 53, N-(2,6-dioxopiperidin-3-yl)-4-hydroxythiophene-2-carboxamide] the Ki was < 5 µM. In the case of CC(C)(C)OC(=O)NCc1sccc1C(=O)NC1CCC(=O)NC1=O (centres unmarked) [Compound 63, tert-butyl ((3-((2,6-dioxopiperidin-3-yl)carbamoyl)thiophen-2-yl)methyl)carbamate], the Ki is reported as 10 to 50 µM. With O=C1CCC(NC(=O)c2ccsc2C2CC2)C(=O)N1 (centres unmarked) [Compound 66, 2-cyclopropyl-N-(2,6-dioxopiperidin-3-yl)thiophene-3-carboxamide] the Ki was 10 to 50 µM. For CCOc1oc(C)nc1C(=O)NC1CCC(=O)NC1=O (centres unmarked) [Compound 68, N-(2,6-dioxopiperidin-3-yl)-5-ethoxy-2-methyloxazole-4-carboxamide], the Ki was 10 to 50 µM. CC(C)(C)OC(=O)NCc1nc(C(=O)NC2CCC(=O)NC2=O)cs1 (centres unmarked) [Compound 77, tert-butyl ((4-((2,6-dioxopiperidin-3-yl)carbamoyl)thiazol-2-yl)methyl)carbamate] gave a Ki of 5 to 10 µM. In the case of CNc1scnc1C(=O)NC1CCC(=O)NC1=O (centres unmarked) [Compound 78, N-(2,6-dioxopiperidin-3-yl)-5-(methylamino)thiazole-4-carboxamide], the Ki is reported as 10 to 50 µM. COc1scnc1C(=O)NC1CCC(=O)NC1=O (centres unmarked) [Compound 79, N-(2,6-dioxopiperidin-3-yl)-5-methoxythiazole-4-carboxamide] gave a Ki of 5 to 10 µM. With COc1sc(N)nc1C(=O)NC1CCC(=O)NC1=O (centres unmarked) [Compound 80, 2-amino-N-(2,6-dioxopiperidin-3-yl)-5-methoxythiazole-4-carboxamide] the Ki was < 5 µM. For O=C1CCC(NC(=O)c2ncsc2C2CC2)C(=O)N1 (centres unmarked) [Compound 82, 5-Cyclopropyl-N-(2,6-dioxopiperidin-3-yl)thiazole-4-carboxamide], the Ki was 10 to 50 µM. In the case of O=C1CCC(NC(=O)c2sc(Br)c3cccnc23)C(=O)N1 (centres unmarked) [Compound 96], the Ki is reported as < 5 µM. Work on O=C1CCC(NC(=O)c2c[nH]c3nccc(Cl)c23)C(=O)N1 (centres unmarked) [Compound 97, 4-chloro-N-(2,6-dioxopiperidin-3-yl)-1H-pyrrolo[2,3-b]pyridine-3-carboxamide] yielded a Ki of 5 to 10 µM. Molecule Cn1cc(C(=O)NC2CCC(=O)NC2=O)c2cccnc21 (centres unmarked) [Compound 98, N-(2,6-dioxopiperidin-3-yl)-1-methyl-1H-pyrrolo[2,3-b]pyridine-3-carboxamide] has a Ki of 10 to 50 µM. In the case of O=C1CCC(NC(=O)c2c[nH]c3ncc(Cl)cc23)C(=O)N1 (centres unmarked) [Compound 99, 5-chloro-N-(2,6-dioxopiperidin-3-yl)-1H-pyrrolo[2,3-b]pyridine-3-carboxamide], the Ki is reported as 5 to 10 µM. Work on Nc1ncc(C(=O)NC2CCC(=O)NC2=O)s1 (centres unmarked) [Compound 112, 2-amino-N-(2,6-dioxopiperidin-3-yl)thiazole-5-carboxamide] yielded a Ki of 5 to 10 µM.

Each molecule was assayed on IKZF1 (assay: IKZF1 degradation assay, H929 cell line (Western blot densitometry)). Conditions: 20 μM.
Type: cell-based
Description: Cells were seeded on 6- or 12-well plates, and the compounds to be tested were added at the desired concentration range. […] After 6 or 24 h incubation (3TC, 5% CO2), cells were harvested, washed and cell lysates were prepared using RIPA lysis buffer. The amount of protein was determined via BCA assay, and the appropriate quantity was then loaded on the precast gel for the protein separation. After primary and secondary Ab staining, the membranes were washed and signals developed. The densitometry analysis was implemented to obtain the numeric values used later in the protein level evaluation process. […] The treatment with all compounds was carried out for 24 h.
For CC(C)(C)OC(=O)Nc1sccc1C(=O)NC1CCC(=O)NC1=O (centres unmarked) [Compound 1, tert-butyl (3-((2,6-dioxopiperidin-3-yl)carbamoyl)thiophen-2-yl)carbamate], the “% of IKZF1 protein reduction, IKZF 1 (24 H, 20 μM)” value (from here on “% of IKZF1 protein reduction”) was ≤25% (≤25% for 0-25% of IKZF1 protein reduction). With CC(=O)N(C)c1sccc1C(=O)NC1CCC(=O)NC1=O (centres unmarked) [Compound 2, N-(2,6-dioxopiperidin-3-yl)-2-(N-methylacetamido)thiophene-3-carboxamide] the “% of IKZF1 protein reduction” value was ≤25% (≤25% for 0-25% of IKZF1 protein reduction). For O=C1CCC(NC(=O)c2ccsc2-n2cccc2)C(=O)N1 (centres unmarked) [Compound 41, N-(2,6-dioxopiperidin-3-yl)-2-(1H-pyrrol-1-yl)thiophene-3-carboxamide], the “% of IKZF1 protein reduction” value was ≤25% (≤25% for 0-25% of IKZF1 protein reduction). In the case of O=C1CCC(NC(=O)c2cc(Cl)sc2NC(=O)c2ccccc2)C(=O)N1 (centres unmarked) [Compound 45, 2-benzamido-5-chloro-N-(2,6-dioxopiperidin-3-yl)thiophene-3-carboxamide], the “% of IKZF1 protein reduction” value is reported as >25% (>25% for 26-74% of IKZF1 protein reduction). For O=C1CCC(NC(=O)c2cnc(C(F)(F)F)s2)C(=O)N1 (centres unmarked) [Compound 72, N-(2,6-dioxopiperidin-3-yl)-2-(trifluoromethyl)thiazole-5-carboxamide], the “% of IKZF1 protein reduction” value was ≤25% (≤25% for 0-25% of IKZF1 protein reduction). For CC(=O)Nc1sc2c(c1C(=O)NC1CCC(=O)NC1=O)CCCC2 (centres unmarked) [Compound 105, N-(2,6-dioxopiperidin-3-yl)-2-acetamido-4,5,6,7-tetrahydro-1-benzothiophene-3-carboxamide], the “% of IKZF1 protein reduction” value was ≤25% (≤25% for 0-25% of IKZF1 protein reduction).

Reference: US20230065745A1, “PIPERIDINE-2,6-DIONE DERIVATIVES WHICH BIND TO CEREBLON, AND METHODS OF USE THEREOF” (Captor Therapeutics S.A., priority 2019, published 2023)
